Reference: patent publication US7312248B2, “Control of parasites in animals by the use of novel trifluoromethanesulfonanilide oxime ether derivatives” (Schering-Plough Animal Health Corporation, priority 2004, dated 2007)

Test system: cat flea (Ctenocephalides felis)
Assay: whole plant or invertebrate
Type: in vivo
Conditions: 24 h; Laboratory 2 B data
Protocol: b) Ctenocephalides felis Adulticide Assay: C. felis Single Dose Screen
Mortality of fleas was the primary endpoint in the assay. Fleas were considered dead if they didn't move or were on their sides and unable to walk or right themselves. […] The concentration chosen (1.26 μg/cm^2) was higher than that known to kill 90% of cat fleas (LC90) using the reference compound, permethrin.
The test species was the cat flea (Ctenocephalides felis). The strain used was obtained from external suppliers as pupae and held in the laboratory under testing conditions until the adults had emerged. Fifteen (15) fleas were used in a minimum of four replicates against a single concentration level (approximately 60 fleas). The insects were selected to be in the adult life stage, aged between 3 and 7 days post emergence.
The compounds to be tested were supplied as solids and were prepared in acetone as described below prior to testing. Samples were stored in a refrigerator (5±1° C.) unless otherwise specified.
During the mortality testing, the temperature was maintained at 25±1° C. Humidity was maintained at 75±5%. The base (area=159 mm^2) of a 100 mL glass Erlenmeyer (conical) flask provided the treatment surface. Flasks were pretreated with Coatasil™ glass treatment to maximise bio-availability of test compounds by preventing them from binding to glass the surface. The base of the 100 mL Erlenmeyer flask was treated with 0.5 mL of test sample in acetone and gently swirled. This volume was sufficient to cover the base of the flask. Flasks were left to dry for 24 hours before flea exposure.
Adult cat fleas were placed into a sorting chamber, which allowed fleas to jump into the Erlenmeyer flasks. Fifteen (15) adult cat fleas were collected in each flask. The top of the flasks were then covered in Parafilm™ and small holes were made to allow gas exchange. A 0.5 mL volume of acetone as a solvent control was applied to the base of an Erlenmeyer flask and the testing proceeded in the same manner described above. Cat fleas in the treatment containers were held under testing conditions for 8, 24 and/or 48 hours. Mortality was recorded at 8, 24, 8 and 24, or 24 and 48 hours. Pooled 8, 24, 8 and 24, and 24 and 48 hour mortality data were converted to percentages and are summarized by Tables 14, 14A and 14B, below.

Row | SMILES | C. felis Mortality (%) 24 h
1 | CO/N=C(\c1ccccc1)c1cc(Cl)ccc1NS(=O)(=O)C(F)(F)F [Compound 232] | 96^B %
2 | CO/N=C(\c1ccccc1)c1cc(Cl)ccc1NS(=O)(=O)C(F)(F)F [Compound 233] | 15^B %

Same assay, conditions: 48 h; Laboratory 2 B data

Row | SMILES | C. felis Mortality (%) 48 h [%]
3 | CO/N=C(\c1ccccc1)c1cc(Cl)ccc1NS(=O)(=O)C(F)(F)F [Compound 233] | 96

Same assay, conditions: Ctenocephalides felis, 8 h, read-out: C. felis Mortality (%) 8 h, 8 h; Laboratory 2 B data

Row | SMILES | mortality at 1.26 µg/cm2, 1.26 µg/cm2 [%]
4 | CCC/C(=N\OC1CCCCC1)c1cc(Cl)ccc1NS(=O)(=O)C(F)(F)F [Compound 192] | 18

Same assay, conditions: Ctenocephalides felis, 24 h, read-out: C. felis Mortality (%) 24 h, 24 h; Laboratory 1 A data

Row | SMILES | mortality at 1.26 µg/cm2, 1.26 µg/cm2 [%]
5 | C/C(=N\OCC=C(Cl)Cl)c1ccccc1NS(=O)(=O)C(F)(F)F [Compound 25] | 100
6 | C/C(=N\OCC#N)c1ccccc1NS(=O)(=O)C(F)(F)F [Compound 27] | 95
7 | CCO/N=C(\C)c1ccccc1NS(=O)(=O)C(F)(F)F [Compound 29] | 92
8 | CO/N=C(\c1ccccc1)c1ccccc1NS(=O)(=O)C(F)(F)F [Compound 30] | 62
9 | CCO/N=C(\c1ccccc1)c1ccccc1NS(=O)(=O)C(F)(F)F [Compound 31] | 74
10 | CO/N=C(\C)c1cc2c(cc1NS(=O)(=O)C(F)(F)F)OCO2 [Compound 32] | 100
11 | CC/C(=N\OC)c1cc(Cl)ccc1NS(=O)(=O)C(F)(F)F [Compound 34] | 100
12 | CO/N=C(\C)c1cc(Cl)ccc1NS(=O)(=O)C(F)(F)F [Compound 35] | 100
13 | CCO/N=C(\C)c1cc(Cl)ccc1NS(=O)(=O)C(F)(F)F [Compound 36] | 100
14 | CCO/N=C(\CC)c1cc(Cl)ccc1NS(=O)(=O)C(F)(F)F [Compound 37] | 29
15 | CO/N=C(\C)c1cccc(OC)c1NS(=O)(=O)C(F)(F)F [Compound 40] | 45
16 | CCO/N=C(\C)c1cccc(OC)c1NS(=O)(=O)C(F)(F)F [Compound 41] | 45
17 | CO/N=C(\C)c1cccc(C)c1NS(=O)(=O)C(F)(F)F [Compound 42] | 72
18 | CCO/N=C(\C)c1cccc(C)c1NS(=O)(=O)C(F)(F)F [Compound 43] | 86
19 | C/C(=N\OCc1ccccn1)c1cc(Cl)ccc1NS(=O)(=O)C(F)(F)F [Compound 48] | 94
20 | CCO/N=C(\C)c1ccc(F)cc1NS(=O)(=O)C(F)(F)F [Compound 51] | 100
21 | CO/N=C(\C)c1cc(Br)ccc1NS(=O)(=O)C(F)(F)F [Compound 52] | 100
22 | CCO/N=C(\C)c1cc(Br)ccc1NS(=O)(=O)C(F)(F)F [Compound 53] | 100
23 | CSCO/N=C(\C)c1cccc(C)c1NS(=O)(=O)C(F)(F)F [Compound 54] | 93
24 | CSCO/N=C(\C)c1ccccc1NS(=O)(=O)C(F)(F)F [Compound 56] | 100
25 | C/C(=N\OC(C)C)c1cccc(C)c1NS(=O)(=O)C(F)(F)F [Compound 57] | 77
26 | CCC(C)O/N=C(\C)c1cccc(C)c1NS(=O)(=O)C(F)(F)F (stereo not shown) [Compound 58] | 25
27 | CSCO/N=C(\C)c1cc(Cl)ccc1NS(=O)(=O)C(F)(F)F [Compound 124] | 100
28 | C/C(=N\Oc1ccc(C)cc1)c1cc(Cl)ccc1NS(=O)(=O)C(F)(F)F [Compound 141] | 41
29 | CC/C(=N\Oc1ccc(C)cc1)c1cc(Cl)ccc1NS(=O)(=O)C(F)(F)F [Compound 142] | 72

Row | SMILES | mortality at 1.26 µg/cm2, 1.26 µg/cm2 [%]
30 | C/C(=N\Oc1ccc(C(F)(F)F)cc1)c1cc(Cl)ccc1NS(=O)(=O)C(F)(F)F [Compound 143] | 7
31 | C/C(=N\Oc1ccc(F)c(Cl)c1)c1cc(Cl)ccc1NS(=O)(=O)C(F)(F)F [Compound 144] | 15
32 | CC/C(=N\Oc1ccc(C(F)(F)F)cc1)c1cc(Cl)ccc1NS(=O)(=O)C(F)(F)F [Compound 145] | 9
33 | CC/C(=N\Oc1ccc(F)c(Cl)c1)c1cc(Cl)ccc1NS(=O)(=O)C(F)(F)F [Compound 146] | 11
34 | C/C(=N\Oc1ccc(F)c(F)c1)c1cc(Cl)ccc1NS(=O)(=O)C(F)(F)F [Compound 147] | 4
35 | CC/C(=N\Oc1ccc(F)c(F)c1)c1cc(Cl)ccc1NS(=O)(=O)C(F)(F)F [Compound 148] | 38
36 | C/C(=N\Oc1ccccc1C)c1cc(Cl)ccc1NS(=O)(=O)C(F)(F)F [Compound 149] | 17
37 | CC/C(=N\Oc1ccccc1C)c1cc(Cl)ccc1NS(=O)(=O)C(F)(F)F [Compound 150] | 48
38 | C/C(=N\Oc1ccc(OC(F)(F)F)cc1)c1cc(Cl)ccc1NS(=O)(=O)C(F)(F)F [Compound 151] | 62
39 | CC/C(=N\Oc1ccc(OC(F)(F)F)cc1)c1cc(Cl)ccc1NS(=O)(=O)C(F)(F)F [Compound 152] | 61
40 | CC/C(=N\OCC#N)c1cc(Cl)ccc1NS(=O)(=O)C(F)(F)F [Compound 153] | 77
41 | CC/C(=N\OC(C)C)c1cc(Cl)ccc1NS(=O)(=O)C(F)(F)F [Compound 154] | 100
42 | C/C(=N\OCC#N)c1cc(Cl)ccc1NS(=O)(=O)C(F)(F)F [Compound 160] | 42
43 | O=S(=O)(Nc1ccc(Cl)cc1/C(=N/OC1CCCC1)c1ccccc1)C(F)(F)F [Compound 162] | 14
44 | O=S(=O)(Nc1ccc(Cl)cc1/C(=N/Oc1ccc(Cl)cc1)c1ccccc1)C(F)(F)F [Compound 164, N-{4-chloro-2-[(4-chlorophenoxyimino)phenylmethyl]phenyl}trifluoromethanesulfonamide] | 19
45 | O=S(=O)(Nc1ccc(Cl)cc1/C(=N/Oc1ccc(F)cc1)c1ccccc1)C(F)(F)F [Compound 165, N-{4-chloro-2-[(4-fluorophenoxyimino)phenylmethyl]phenyl}trifluoromethanesulfonamide] | 21
46 | CCC/C(=N\Oc1ccc(Cl)cc1)c1cc(Cl)ccc1NS(=O)(=O)C(F)(F)F [Compound 166, N-{4-chloro-2-[1-(4-chlorophenoxyimino)butyl]phenyl}trifluoromethanesulfonamide] | 17
47 | O=S(=O)(Nc1ccc(Cl)cc1/C(=N/Oc1ccc(Cl)cc1)C1CCCCC1)C(F)(F)F [Compound 167] | 3
48 | CCC/C(=N\Oc1ccc(F)cc1)c1cc(Cl)ccc1NS(=O)(=O)C(F)(F)F [Compound 168] | 36
49 | O=S(=O)(Nc1ccc(Cl)cc1/C(=N/Oc1ccc(F)cc1)C1CCCCC1)C(F)(F)F [Compound 169, N-{4-chloro-2-[(4-fluorophenoxyimino)cyclohexylmethyl]phenyl}trifluoromethanesulfonamide] | 9
50 | C/C(=N\OCC1CCCCC1)c1cc(Cl)ccc1NS(=O)(=O)C(F)(F)F [Compound 173] | 96
51 | CC(C)O/N=C(\c1ccccc1)c1cc(Cl)ccc1NS(=O)(=O)C(F)(F)F [Compound 176] | 52
52 | O=S(=O)(Nc1ccc(Cl)cc1/C(=N/OC1CCCCC1)c1ccccc1)C(F)(F)F [Compound 179] | 12
53 | O=S(=O)(Nc1ccc(Cl)cc1/C(=N/OCC1CCCCC1)c1ccccc1)C(F)(F)F [Compound 180] | 8
54 | CC(C)(C)/C(=N\Oc1ccc(Cl)cc1)c1cc(Cl)ccc1NS(=O)(=O)C(F)(F)F [Compound 182, N-{4-chloro-2-[1-(4-chlorophenoxyimino)2,2-dimethylpropyl]phenyl}trifluoromethanesulfonamide] | 28

Same assay, conditions: Ctenocephalides felis, 24 h, read-out: C. felis Mortality (%) 24 h, 24 h; Laboratory 2 B data

Row | SMILES | mortality at 1.26 µg/cm2, 1.26 µg/cm2 [%]
55 | COCCON=C(c1ccccc1)c1cc(Cl)ccc1NS(=O)(=O)C(F)(F)F (racemic) [Compound 234, N-{4-chloro-[(2-methoxyethoxyimino)phenylmethyl]phenyl}trifluoromethanesulfonamide] | 64
56 | CCC/C(=N\OC1CCCCC1)c1cc(Cl)ccc1NS(=O)(=O)C(F)(F)F [Compound 192] | 43
57 | CCC(CC)O/N=C(\C)c1ccc(C(F)(F)F)cc1NS(=O)(=O)C(F)(F)F [Compound 236] | 69
58 | C/C(=N\OC1CCCCC1)c1ccc(C(F)(F)F)cc1NS(=O)(=O)C(F)(F)F [Compound 237] | 4
59 | C/C(=N\OC1C=CCCC1)c1ccc(C(F)(F)F)cc1NS(=O)(=O)C(F)(F)F (stereo not shown) [Compound 238] | 61

Same assay, conditions: Ctenocephalides felis, 48 h, read-out: C. felis Mortality (%) 48 h, 48 h; Laboratory 2 B data

Row | SMILES | mortality at 1.26 µg/cm2, 1.26 µg/cm2 [%]
60 | COCCON=C(c1ccccc1)c1cc(Cl)ccc1NS(=O)(=O)C(F)(F)F (racemic) [Compound 234, N-{4-chloro-[(2-methoxyethoxyimino)phenylmethyl]phenyl}trifluoromethanesulfonamide] | 100
61 | CO/N=C(\c1ccccc1)c1cc(Cl)ccc1NS(=O)(=O)C(F)(F)F [Compound 232] | 100
62 | CCC(CC)O/N=C(\C)c1ccc(C(F)(F)F)cc1NS(=O)(=O)C(F)(F)F [Compound 236] | 100
63 | C/C(=N\OC1CCCCC1)c1ccc(C(F)(F)F)cc1NS(=O)(=O)C(F)(F)F [Compound 237] | 36
64 | C/C(=N\OC1C=CCCC1)c1ccc(C(F)(F)F)cc1NS(=O)(=O)C(F)(F)F (stereo not shown) [Compound 238] | 84
